Here are results for 14 molecules from patent US20240246908A1 (ORION CORPORATION, priority 2021, published 2024).

Usually IC50 stands for the concentration needed to halve the response being measured.

The structures appear in SMILES notation.

This assay relates to YAP-TEAD. The assay is described as follows: TEAD inhibition, Hippo Pathway TEAD Reporter MCF-7 luciferase assay. The class given is cell-based. As to conditions: Homo sapiens, MCF7, 24 h, Hippo Pathway TEAD Reporter MCF-7 cells, luciferase activity after 24 h; read-out: IC50 of the test compounds on YAP-TEAD inhibition (Group). In a few lines: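 IC50 derived from ONE-Glo luciferase luminescence after 24 h compound exposure (11 concentrations in quadruplicate, 0.1% DMSO control). Reporter: MCF-7 line expressing firefly luciferase under TEAD elements, constitutively activated by nuclear YAP1.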
Turning to `CN1C[C@@H](C(=O)Nc2cc(Oc3ccc(C(F)(F)F)cn3)cc3c2OCC3)N(C)C1=O` [Compound 364, (S)-1,3-Dimethyl-2-oxo-N-(5-((5-(trifluoromethyl)pyridin-2-yl)oxy)-2,3-dihydrobenzofuran-7-yl)imidazolidine-4-carboxamide], the IC50 is 50 to 300 nM. The same measure for `CN1C(=O)NC[C@H]1C(=O)Nc1cc(Oc2ccc(C(F)(F)F)cc2)ccc1F` [Compound 365, (S)—N-(2-Fluoro-5-(4-(trifluoromethyl)phenoxy)phenyl)-3-methyl-2-oxo-imidazolidine-4-carboxamide]: below 50 nM; for `CN1C(=O)CCC1C(=O)Nc1cc(Oc2cccc(C(F)(F)F)c2)ccc1Br` (centres unmarked) [Compound 366, N-(2-Bromo-5-(3-(trifluoromethyl)phenoxy)phenyl)-1-methyl-5-oxopyrrolidine-2-carboxamide]: 301 to 2000 nM; for `CN1C(=O)CCC1C(=O)Nc1cc(Oc2ccc(C(F)(F)F)cc2)ccc1C#N` (centres unmarked) [Compound 367, N-(2-Cyano-5-(4-(trifluoromethyl)phenoxy)phenyl)-1-methyl-5-oxopyrrolidine-2-carboxamide]: 301 to 2000 nM. As for `CN1C(=O)CCC1C(=O)Nc1cc(Oc2ccc(C(F)(F)F)cn2)ccc1F` (centres unmarked) [Compound 368, N-(2-Fluoro-5-((5-(trifluoromethyl)pyridin-2-yl)oxy)phenyl)-1-methyl-5-oxopyrrolidine-2-carboxamide], the IC50 was 50 to 300 nM. As for `COc1ccc(Oc2ccc(C(F)(F)F)cc2)cc1NC(=O)[C@@H]1C[C@@H](O)CN1` [Compound 370, (2S,4R)-4-Hydroxy-N-(2-methoxy-5-(4-(trifluoromethyl)phenoxy)phenyl)pyrrolidine-2-carboxamide], the figure is 301 to 2000 nM.

With `COc1ccc(Oc2ccc(C(F)(F)F)cc2)cc1NC(=O)[C@@H]1CCC(=O)N1C(C)=O` [Compound 371, (S)-1-Acetyl-N-(2-methoxy-5-(4-(trifluoromethyl)phenoxy)-phenyl)-5-oxopyrrolidine-2-carboxamide], the concentration for half-maximal inhibition (IC50) fell in the range of 50 to 300 nM. As for `CN1C(=O)CCC1C(=O)Nc1cc(Oc2ccc(C(F)(F)F)cc2)ccc1O` (centres unmarked) [Compound 372, N-(2-Hydroxy-5-(4-(trifluoromethyl)phenoxy)phenyl)-1-methyl-5-oxopyrrolidine-2-carboxamide], the figure is 301 to 2000 nM; as for `CN1C(=O)NC[C@H]1C(=O)Nc1cc(Oc2ccc(C(F)(F)F)cn2)ccc1O` [Compound 373, (S)—N-(2-Hydroxy-5-((5-(trifluoromethyl)pyridin-2-yl)oxy)phenyl)-3-methyl-2-oxoimidazolidine-4-carboxamide], 301 to 2000 nM; as for `COc1ccc(Oc2ccc(C(F)(F)F)cc2)cc1NC(=O)C1CNCC(=O)N1C` (centres unmarked) [Compound 374, N-(2-Methoxy-5-(4-(trifluoromethyl)phenoxy)phenyl)-1-methyl-6-oxopiperazine-2-carboxamide], 301 to 2000 nM. As for `CNC(CCC(=O)O)C(=O)Nc1cc(Oc2ccc(C(F)(F)F)cc2)ccc1OC` (centres unmarked) [Compound 375], the figure is below 50 nM; as for `CN1C(=O)CNCC1C(=O)Nc1cc(Oc2ccc(C(F)(F)F)cc2)cc2c1OCC2` (centres unmarked) [Compound 376, 1-Methyl-6-oxo-N-(5-(4-(trifluoromethyl)phenoxy)-2,3-dihydro-benzofuran-7-yl)piperazine-2-carboxamide], 50 to 300 nM; as for `COc1ccc(Oc2ccc(C(F)(F)F)cc2)cc1NC(=O)C1CCC(=O)N1CCC(N)=O` (centres unmarked) [Compound 379, 1-(3-Amino-3-oxopropyl)-N-(2-methoxy-5-(4-(trifluoromethyl)-phenoxy)phenyl)-5-oxopyrrolidine-2-carboxamide], 50 to 300 nM. Consider `COc1ccc(Oc2ccc(C(F)(F)F)cc2)cc1NC(=O)[C@@H]1C[C@H](O)C(=O)N1C` [Compound 380, (2S,4S)-4-Hydroxy-N-(2-methoxy-5-(4-(trifluoromethyl)phenoxy)phenyl)-1-methyl-5-oxopyrrolidine-2-carboxamide], for which the IC50 is 50 to 300 nM.
